{"source": "paper PMC6979384", "about": "“Characterization of the plant homeodomain (PHD) reader family for their histone tail interactions” (Epigenetics & Chromatin, 2020)", "assay_in_all_cases": "Histone peptide microarray", "format_in_all_cases": "binding, human", "conditions_in_all_cases": "sheet \"Array Heatmap\"", "key": {"CHD5 (PPCC)": {"test_system": "CHD5 (PPCC)", "description": "(§1) To more comprehensively define the histone interactions of the 31 PHD readers identified from the domain microarray analyses, we probed each on an alternate microarray platform containing a library of 293 synthetic histone peptides with single or combinatorial PTMs (Additional file 2: Figure S4 and Additional file 3: Table S2).\n(§2) The 31 GST-tagged PHD readers identified in the PHD finger domain array were expressed and purified as previously. Histone peptide arrays and peptide pulldown assays were conducted as recently described (specifically, the optimized protocol from Petell et al. for the former).\n(§3) Supplementary file 13072_2020_328_MOESM3_ESM.xlsx: Additional file 3: Table S2. […] Excel Tab Peptide List is a compiled list of the entire 293 histone peptide library with amino acid sequence ranges. […] Each number corresponds to the peptide number designated in Peptide List. Excel Tab Average Signals is a compiled set of binding data: chromatin reader at 0.5 μM vs. entire 293 peptide library. Data is presented as the average and standard deviation of 4 replicates. The average signals are colored to indicate signal intensity with green being strong and white being weak/low. […] Key: red= stronger relative binding; blue = weaker relative binding. Excel Tab Array info summary is a table summarizing the domains, sequence coverage, array signal range, and noise for each of the GST-tagged readers assayed on the peptide microarrays."}, "ING4": {"test_system": "ING4", "description": "as §1, §2, §3"}, "ING1": {"test_system": "ING1", "description": "as §1, §2, §3"}, "CHD5 (PCC)": {"test_system": "CHD5 (PCC)", "description": "as §1, §2, §3"}, "BAZ2B": {"test_system": "BAZ2B", "description": "as §1, §2, §3"}, "KDM5B (3)": {"test_system": "KDM5B (3)", "description": "as §1, §2, §3"}, "ING2": {"test_system": "ING2", "description": "as §1, §2, §3"}, "PHF23": {"test_system": "PHF23", "description": "as §1, §2, §3"}, "KDM7A": {"test_system": "KDM7A", "description": "as §1, §2, §3"}, "KDM5A (3)": {"test_system": "KDM5A (3)", "description": "as §1, §2, §3"}, "RAG2": {"test_system": "RAG2", "description": "as §1, §2, §3"}, "SP140L": {"test_system": "SP140L", "description": "as §1, §2, §3"}, "AIRE (PP)": {"test_system": "AIRE (PP)", "description": "as §1, §2, §3"}, "DPF2 (PPC2W2)": {"test_system": "DPF2 (PPC2W2)", "description": "as §1, §2, §3"}, "MLL5": {"test_system": "MLL5", "description": "as §1, §2, §3"}, "PHRF1 (RP)": {"test_system": "PHRF1 (RP)", "description": "as §1, §2, §3"}, "ING3": {"test_system": "ING3", "description": "as §1, §2, §3"}, "TRIM66 (PB)": {"test_system": "TRIM66 (PB)", "description": "as §1, §2, §3"}, "PHF8": {"test_system": "PHF8", "description": "as §1, §2, §3"}, "MORC3 (CW)": {"test_system": "MORC3 (CW)", "description": "as §1, §2, §3"}, "BPTF (PB)": {"test_system": "BPTF (PB)", "description": "as §1, §2, §3"}, "PHF21A": {"test_system": "PHF21A", "description": "as §1, §2, §3"}, "PHF2": {"test_system": "PHF2", "description": "as §1, §2, §3"}, "TAF3": {"test_system": "TAF3", "description": "as §1, §2, §3"}, "KDM4C (TTP)": {"test_system": "KDM4C (TTP)", "description": "as §1, §2, §3"}, "PHF13": {"test_system": "PHF13", "description": "as §1, §2, §3"}, "DIDO1": {"test_system": "DIDO1", "description": "as §1, §2, §3"}, "CHD4 (PPCC)": {"test_system": "CHD4 (PPCC)", "description": "as §1, §2, §3"}, "KDM5A (1)": {"test_system": "KDM5A (1)", "description": "as §1, §2, §3"}, "ING5": {"test_system": "ING5", "description": "as §1, §2, §3"}, "KDM5B (1)": {"test_system": "KDM5B (1)", "description": "as §1, §2, §3"}, "[1]": {"conditions": "GST-tagged reader, histone peptide array, total n = 4"}}, "data": [{"substance": "H3 (1-20) N-ac: H3 1-20", "values": [{"measurement": "Array Heatmap signal, CHD5 (PPCC)", "setting": "CHD5 (PPCC); GST-tagged CHD5 (PPCC), arrays performed twice, total replicate number n = 4", "result": 0.5483}, {"measurement": "Array Heatmap signal, ING4", "setting": "ING4; GST-tagged ING4, arrays performed twice, total replicate number n = 4", "result": 0.4519}, {"measurement": "Array Heatmap signal, ING1", "setting": "ING1; GST-tagged ING1, arrays performed twice, total replicate number n = 4", "result": 0.5284}, {"measurement": "Array Heatmap signal, CHD5 (PCC)", "setting": "CHD5 (PCC); GST-tagged CHD5 (PCC), arrays performed twice, total replicate number n = 4", "result": 0.8196}, {"measurement": "Array Heatmap signal, BAZ2B", "setting": "BAZ2B; GST-tagged BAZ2B, arrays performed twice, total replicate number n = 4", "result": 0.4663}, {"measurement": "Array Heatmap signal, KDM5B (3)", "setting": "KDM5B (3); GST-tagged KDM5B (3), arrays performed twice, total replicate number n = 4", "result": 0.5329}, {"measurement": "Array Heatmap signal, ING2", "setting": "ING2; GST-tagged ING2, arrays performed twice, total replicate number n = 4", "result": 0.6126}, {"measurement": "Array Heatmap signal, PHF23", "setting": "PHF23; GST-tagged PHF23, arrays performed twice, total replicate number n = 4", "result": 0.532}, {"measurement": "Array Heatmap signal, KDM7A", "setting": "KDM7A; GST-tagged KDM7A, arrays performed twice, total replicate number n = 4", "result": 0.3283}, {"measurement": "Array Heatmap signal, KDM5A (3)", "setting": "KDM5A (3); GST-tagged KDM5A (3), arrays performed twice, total replicate number n = 4", "result": 0.5353}, {"measurement": "Array Heatmap signal, RAG2", "setting": "RAG2; GST-tagged RAG2, arrays performed twice, total replicate number n = 4", "result": 0.259}, {"measurement": "Array Heatmap signal, SP140L", "setting": "SP140L; GST-tagged SP140L, arrays performed twice, total replicate number n = 4", "result": 0.3813}, {"measurement": "Array Heatmap signal, AIRE (PP)", "setting": "AIRE (PP); GST-tagged AIRE (PP), arrays performed twice, total replicate number n = 4", "result": 0.5035}, {"measurement": "Array Heatmap signal, DPF2 (PPC2W2)", "setting": "DPF2 (PPC2W2); GST-tagged DPF2 (PPC2W2), arrays performed twice, total replicate number n = 4", "result": 0.6951}, {"measurement": "Array Heatmap signal, MLL5", "setting": "MLL5; GST-tagged MLL5, arrays performed twice, total replicate number n = 4", "result": 0.5714}, {"measurement": "Array Heatmap signal, PHRF1 (RP)", "setting": "PHRF1 (RP); GST-tagged PHRF1 (RP), arrays performed twice, total replicate number n = 4", "result": 0.6182}, {"measurement": "Array Heatmap signal, ING3", "setting": "ING3; GST-tagged ING3, arrays performed twice, total replicate number n = 4", "result": 0.4681}, {"measurement": "Array Heatmap signal, TRIM66 (PB)", "setting": "TRIM66 (PB); GST-tagged TRIM66 (PB), arrays performed twice, total replicate number n = 4", "result": 0.7386}, {"measurement": "Array Heatmap signal, PHF8", "setting": "PHF8; GST-tagged PHF8, arrays performed twice, total replicate number n = 4", "result": 0.365}, {"measurement": "Array Heatmap signal, MORC3 (CW)", "setting": "MORC3 (CW); GST-tagged MORC3 (CW), arrays performed twice, total replicate number n = 4", "result": 0.4955}, {"measurement": "Array Heatmap signal, BPTF (PB)", "setting": "BPTF (PB); GST-tagged BPTF (PB), arrays performed twice, total replicate number n = 4", "result": 0.3531}, {"measurement": "Array Heatmap signal, PHF21A", "setting": "PHF21A; GST-tagged PHF21A, arrays performed twice, total replicate number n = 4", "result": 0.4724}, {"measurement": "Array Heatmap signal, PHF2", "setting": "PHF2; GST-tagged PHF2, arrays performed twice, total replicate number n = 4", "result": 0.4904}, {"measurement": "Array Heatmap signal, TAF3", "setting": "TAF3; GST-tagged TAF3, arrays performed twice, total replicate number n = 4", "result": 0.3122}, {"measurement": "Array Heatmap signal, KDM4C (TTP)", "setting": "KDM4C (TTP); GST-tagged KDM4C (TTP), arrays performed twice, total replicate number n = 4", "result": 0.4656}, {"measurement": "Array Heatmap signal, PHF13", "setting": "PHF13; GST-tagged PHF13, arrays performed twice, total replicate number n = 4", "result": 0.6234}, {"measurement": "Array Heatmap signal, DIDO1", "setting": "DIDO1; GST-tagged DIDO1, arrays performed twice, total replicate number n = 4", "result": 0.6386}, {"measurement": "Array Heatmap signal, CHD4 (PPCC)", "setting": "CHD4 (PPCC); GST-tagged CHD4 (PPCC), arrays performed twice, total replicate number n = 4", "result": 0.5805}, {"measurement": "Array Heatmap signal, KDM5A (1)", "setting": "KDM5A (1); GST-tagged KDM5A (1), arrays performed twice, total replicate number n = 4", "result": 0.4705}, {"measurement": "Array Heatmap signal, ING5", "setting": "ING5; GST-tagged ING5, arrays performed twice, total replicate number n = 4", "result": 0.3522}, {"measurement": "Array Heatmap signal, KDM5B (1)", "setting": "KDM5B (1); GST-tagged KDM5B (1), arrays performed twice, total replicate number n = 4", "result": 0.6502}]}, {"substance": "H3 (1-25): H3 1-25", "values": [{"measurement": "Array Heatmap signal, CHD5 (PPCC)", "setting": "CHD5 (PPCC); [1]", "result": 0.5322}, {"measurement": "Array Heatmap signal, ING4", "setting": "ING4; [1]", "result": 0.4369}, {"measurement": "Array Heatmap signal, ING1", "setting": "ING1; [1]", "result": 0.5226}, {"measurement": "Array Heatmap signal, CHD5 (PCC)", "setting": "CHD5 (PCC); [1]", "result": 0.8391}, {"measurement": "Array Heatmap signal, BAZ2B", "setting": "BAZ2B; [1]", "result": 0.4554}, {"measurement": "Array Heatmap signal, KDM5B (3)", "setting": "KDM5B (3); [1]", "result": 0.5183}, {"measurement": "Array Heatmap signal, ING2", "setting": "ING2; [1]", "result": 0.6234}, {"measurement": "Array Heatmap signal, PHF23", "setting": "PHF23; [1]", "result": 0.5406}, {"measurement": "Array Heatmap signal, KDM7A", "setting": "KDM7A; [1]", "result": 0.3768}, {"measurement": "Array Heatmap signal, KDM5A (3)", "setting": "KDM5A (3); [1]", "result": 0.6477}, {"measurement": "Array Heatmap signal, RAG2", "setting": "RAG2; [1]", "result": 0.2539}, {"measurement": "Array Heatmap signal, SP140L", "setting": "SP140L; [1]", "result": 0.342}, {"measurement": "Array Heatmap signal, AIRE (PP)", "setting": "AIRE (PP); [1]", "result": 0.5222}, {"measurement": "Array Heatmap signal, DPF2 (PPC2W2)", "setting": "DPF2 (PPC2W2); [1]", "result": 0.7357}, {"measurement": "Array Heatmap signal, MLL5", "setting": "MLL5; [1]", "result": 0.57}, {"measurement": "Array Heatmap signal, PHRF1 (RP)", "setting": "PHRF1 (RP); [1]", "result": 0.8507}, {"measurement": "Array Heatmap signal, ING3", "setting": "ING3; [1]", "result": 0.4651}, {"measurement": "Array Heatmap signal, TRIM66 (PB)", "setting": "TRIM66 (PB); [1]", "result": 0.9221}, {"measurement": "Array Heatmap signal, PHF8", "setting": "PHF8; [1]", "result": 0.366}, {"measurement": "Array Heatmap signal, MORC3 (CW)", "setting": "MORC3 (CW); [1]", "result": 0.6357}, {"measurement": "Array Heatmap signal, BPTF (PB)", "setting": "BPTF (PB); [1]", "result": 0.3452}, {"measurement": "Array Heatmap signal, PHF21A", "setting": "PHF21A; [1]", "result": 0.4429}, {"measurement": "Array Heatmap signal, PHF2", "setting": "PHF2; [1]", "result": 0.5334}, {"measurement": "Array Heatmap signal, TAF3", "setting": "TAF3; [1]", "result": 0.2692}, {"measurement": "Array Heatmap signal, KDM4C (TTP)", "setting": "KDM4C (TTP); [1]", "result": 0.4415}, {"measurement": "Array Heatmap signal, PHF13", "setting": "PHF13; [1]", "result": 0.6012}, {"measurement": "Array Heatmap signal, DIDO1", "setting": "DIDO1; [1]", "result": 0.658}, {"measurement": "Array Heatmap signal, CHD4 (PPCC)", "setting": "CHD4 (PPCC); [1]", "result": 0.5563}, {"measurement": "Array Heatmap signal, KDM5A (1)", "setting": "KDM5A (1); [1]", "result": 0.4713}, {"measurement": "Array Heatmap signal, ING5", "setting": "ING5; [1]", "result": 0.3412}, {"measurement": "Array Heatmap signal, KDM5B (1)", "setting": "KDM5B (1); [1]", "result": 0.6949}]}]}
